# According to patent US5334589A, “Quinolone carboxylic acid--metal ion--acid complexes” (Abbott Laboratories, priority 1992, dated 1994):
# Read-outs that look alike come from different tables or passages of the source.
# Experiments:
# rat tail vein = test: Vein irritation in rats (rat tail vein model); settings: 100 mg/kg/day i.v., normal saline; for Normalized Rank: 5=normal
# Description: Three studies were conducted: In Study I, four rats per group were given test compositions for three consecutive days at a concentration of 4 mg/ml (this and other concentrations expressed in terms of equivalent weight of temafloxacin base); in Study II, three rats per group were given test compositions for five consecutive days at 6 mg/ml; and in Study III, two groups of three rats each were given test compositions for five consecutive days at 4 mg/ml and 8 mg/ml, respectively. All rats were dosed at 100 mg/kg/day, with an infusion rate of 0.3 ml/minute.
# Each rat was observed twice after each infusion: Once after 1-to-2 hours following injection, and again after 24 hours. Discoloration was ranked as follows:
# 4=Single red/pink spot of discoloration
# 3=Multiple red/pink spots of discoloration
# 2=Single purple spot of discoloration
# 1=Multiple purple spots of discoloration
# 0=Approx. one-fourth of distal tail discolored purple
# Aggregate rankings were totaled for each group over the course of each study.
# Solubility = type: physicochemical
smiles,measurement,setting,value
CC1CN(c2cc3c(cc2F)c(=O)c(C(=O)O)cn3-c2ccc(F)cc2F)CCN1 (stereo not drawn) [Control A],Normalized Rank,"rat tail vein; Study I, 4 mg/ml, three consecutive days, group total / number of animals / number of measurements, 0=worst",2.29
same,Total Rank,"rat tail vein; Study I, 4 rats, 4 mg/ml, three consecutive days, discoloration rank 5=normal to 0=one-fourth of distal tail purple",55
"CC1CN(c2cc3c(cc2F)c(=O)c(C(=O)O)cn3-c2ccc(F)cc2F)CCN1 (stereo not drawn) [temafloxacin, 1-(2,4-difluorophenyl)-6-fluoro-1,4-dihydro-7-(3-methyl-l-piperazinyl)-4-oxo-3-quinoline carboxylic acid]",solubility,"Solubility; about pH 4 to about pH 10, read-out: solubility",< 500 µg/mL
same,solubility,"Solubility; temafloxacin base in water, read-out: solubility in water",< 500 µg/mL
CC1CN(c2cc3c(cc2F)c(=O)c(C(=O)O)cn3-c2ccc(F)cc2F)CCN1 (stereo not drawn) [Control B],Normalized Rank,"rat tail vein; Study II, 6 mg/ml, five consecutive days, 0=worst",3.23
same,Total Rank,"rat tail vein; Study II, 3 rats, 6 mg/ml, five consecutive days, rank 5=normal, 0=worst",97
